# US11197479B2, “Use of silthiofam for the treatment of soybean rust” (priority 2018, dated 2021)
# Several values for one entry are separate records, joined by “and”; a condition that tells them apart may be missing. Equal values may be shown once.
# System: Phakopsora pachyrhizi
# Assay: Glasshouse pot trial: efficacy on soybean rust on soybean (Glycine max), visual estimation of degree of infection on leaves
# Type: in vivo
# Protocol: In the tables presented below, the following terms have the following meaning:
# Glasshouse pot trials were conducted to evaluate the effect and efficacy of silthiofam on soybean rust disease on soybean (Glycine max).
# The trial was divided in 11 treatments. In 4 of the treatments, silthiofam was applied in different amounts.
# Silthiofam compositions used in this trial were prepared from the suspension concentrate containing 125 g/L of silthiofam, diluted with water to predetermined concentration and sprayed on the plants in the predetermined amounts.
# In two of the treatments, silthiofam was applied in combination with additional ingredients.
# First combination was of silthiofam and chitosan, wherein silthiofam was applied in an amount of 250 g/ha on the plant first and chitosan was applied subsequently in an amount of 200 g/ha.
# Second combination was a combination of silthiofam and tagatose, wherein silthiofam was applied in an amount of 250 g/ha simultaneously with tagatose in an amount of 200 g/ha.
# Further 6 treatments were current market available treatments of soybean rust applied in the label prescribed dose, wherein the compositions used were prepared from commercially available products prepared according to the respective label instructions and sprayed on the plants.
# One treatment of the trial consisted of fungi inoculated plants which received no treatment.
# Soybean plants were treated two times with silthiofam and other treatments. First treatment was applied when soybean plants reached stage BBCH16 and the second treatment was applied when soybean plants reached stage BBCH61. Growth stages were defined according to Compendium of Growth Stage Identification Keys for Mono- and Dicotyledonous Plants, Extended BBCH scale, 2nd Edition 1997, ISBN 3-9520749-3-4.
# After silthiofam and other treatments were applied first time, plants were inoculated with Phakopsora pachyrhizi spores and evaluation of leaves condition and disease spread was done every 7 days.
# Method used for evaluation of disease spread was visual estimation of degree of infection on leaves.
# The experimental design of the pot trial was randomized design with 4 pot replications per treatment applied, wherein six soybean plants were planted per pot.
# Treatments were the following:
# Treatment 1: Plant inoculated with P. pachyrhizi, no treatment applied
# Treatment 2: Treatment with flutriafol and azoxystrobin mixture, applied in concentration of 31.25 g flutriafol/ha and 37.5 g azoxystrobin/ha
# Treatment 3: Silthiofam treatment applied in 250 g silthiofam/ha
# Treatment 4: Silthiofam treatment applied in 500 g silthiofam/ha
# Treatment 5: Silthiofam treatment applied in 250 g silthiofam/ha and 200 g/ha of tagatose
# Treatment 6: Silthiofam treatment applied in 250 g silthiofam/ha and 200 g/ha of chitosan
# Treatment 7: Mancozeb applied in 1.68 kg mancozeb/ha
# Treatment 8: Chlorothalonil applied in 626.4 g chlorothalonil/ha
# Treatment 9: Azoxystrobin applied in 37.5 g azoxystrobin/ha
# Treatment 10: Boscalid applied in 294 g boscalid/ha
# Treatment 11: Prothioconazole and tebuconazole mixture applied as 42 g prothioconazole/ha and 84 g tebuconazole/ha
compound,measurement,setting,value
N#Cc1c(Cl)c(Cl)c(Cl)c(C#N)c1Cl [Chlorothalonil],% efficacy,"chlorothalonil 626.4 g/ha, 7/7 d after first/last application, 19 d after planting, LEALOW",35.8% and 65.9% and 54.9% and 50.0%
same,% efficacy,"chlorothalonil 626.4 g/ha, 7/7 d after first/last application, 19 d after planting, LEAUPP",100.0%
same,% efficacy,"chlorothalonil 626.4 g/ha, 14/14 d after first/last application, 26 d after planting, LEALOW",75.0% and 69.0% and 68.1% and 59.2%
same,% efficacy,"chlorothalonil 626.4 g/ha, 14/14 d after first/last application, 26 d after planting, LEAMID",85.0% and 80.2% and 79.0% and 67.1%
same,% efficacy,"chlorothalonil 626.4 g/ha, 14/14 d after first/last application, 26 d after planting, LEAUPP",88.3% and 81.5% and 78.9% and 80.0%
same,% efficacy,"chlorothalonil 626.4 g/ha, 21/21 d after first/last application, 33 d after planting, LEALOW",55.0% and 40.0% and 44.0% and 45.0%
same,% efficacy,"chlorothalonil 626.4 g/ha, 21/21 d after first/last application, 33 d after planting, LEAMID",72.0% and 70.0% and 65.0% and 62.0%
same,% efficacy,"chlorothalonil 626.4 g/ha, 21/21 d after first/last application, 33 d after planting, LEAUPP",82.3% and 80.6% and 72.0% and 64.3%
same,% efficacy,"chlorothalonil 626.4 g/ha, 28/7 d after first/last application, 40 d after planting, LEALOW",22.0% and 34.0% and 32.0% and 26.0%
same,% efficacy,"chlorothalonil 626.4 g/ha, 28/7 d after first/last application, 40 d after planting, LEAMID",56.0% and 52.0% and 55.0% and 54.0%
same,% efficacy,"chlorothalonil 626.4 g/ha, 28/7 d after first/last application, 40 d after planting, LEAUPP",74.4% and 70.6% and 70.9% and 76.7%
same,% efficacy,"chlorothalonil 626.4 g/ha, 35/14 d after first/last application, 47 d after planting, LEAMID",52.0% and 44.0% and 48.0% and 42.0%
same,% efficacy,"chlorothalonil 626.4 g/ha, 35/14 d after first/last application, 47 d after planting, LEAUPP",63.8% and 69.0% and 68.0%
same,% efficacy,"chlorothalonil 626.4 g/ha, 42/21 d after first/last application, 54 d after planting, LEAUPP",52.0% and 45.0% and 42.0% and 48.0%
O=C(Nc1ccccc1-c1ccc(Cl)cc1)c1cccnc1Cl [Boscalid],% efficacy,"boscalid 294 g/ha, 7/7 d after first/last application, 19 d after planting, LEALOW",85.8% and 86.4% and 93.6% and 100.0%
same,% efficacy,"boscalid 294 g/ha, 7/7 d after first/last application, 19 d after planting, LEAMID",100.0%
same,% efficacy,"boscalid 294 g/ha, 7/7 d after first/last application, 19 d after planting, LEAUPP",100.0%
same,% efficacy,"boscalid 294 g/ha, 14/14 d after first/last application, 26 d after planting, LEALOW",76.0% and 80.0% and 78.0%
same,% efficacy,"boscalid 294 g/ha, 14/14 d after first/last application, 26 d after planting, LEAMID",90.0% and 86.8% and 88.0% and 85.1%
same,% efficacy,"boscalid 294 g/ha, 14/14 d after first/last application, 26 d after planting, LEAUPP",98.6% and 92.6% and 98.7%
same,% efficacy,"boscalid 294 g/ha, 21/21 d after first/last application, 33 d after planting, LEALOW",55.0% and 42.0% and 38.0% and 35.0%
same,% efficacy,"boscalid 294 g/ha, 21/21 d after first/last application, 33 d after planting, LEAMID",56.0% and 49.0% and 55.0% and 52.0%
same,% efficacy,"boscalid 294 g/ha, 21/21 d after first/last application, 33 d after planting, LEAUPP",91.9% and 88.9% and 89.4% and 92.9%
same,% efficacy,"boscalid 294 g/ha, 28/7 d after first/last application, 40 d after planting, LEALOW",49.0% and 52.0% and 51.0% and 44.0%
same,% efficacy,"boscalid 294 g/ha, 28/7 d after first/last application, 40 d after planting, LEAMID",44.0% and 48.0% and 56.0% and 52.0%
same,% efficacy,"boscalid 294 g/ha, 28/7 d after first/last application, 40 d after planting, LEAUPP",85.9% and 100.0% and 93.1% and 85.7%
same,% efficacy,"boscalid 294 g/ha, 35/14 d after first/last application, 47 d after planting, LEAMID",35.0% and 42.0% and 48.0% and 43.0%
same,% efficacy,"boscalid 294 g/ha, 35/14 d after first/last application, 47 d after planting, LEAUPP",83.6% and 82.0% and 77.3% and 82.2%
same,% efficacy,"boscalid 294 g/ha, 42/21 d after first/last application, 54 d after planting, LEAUPP",75.0% and 67.0% and 64.0% and 72.0%
Mancozeb,% efficacy,"mancozeb 1.68 kg/ha, 7/7 d after first/last application, 19 d after planting, LEALOW",50.0% and 65.9% and 64.6% and 61.2%
same,% efficacy,"mancozeb 1.68 kg/ha, 7/7 d after first/last application, 19 d after planting, LEAMID",46.7% and 72.3% and 54.6% and 50.0%
same,% efficacy,"mancozeb 1.68 kg/ha, 7/7 d after first/last application, 19 d after planting, LEAUPP",100.0%
same,% efficacy,"mancozeb 1.68 kg/ha, 14/14 d after first/last application, 26 d after planting, LEALOW",67.0% and 75.0% and 56.4% and 64.3%
same,% efficacy,"mancozeb 1.68 kg/ha, 14/14 d after first/last application, 26 d after planting, LEAMID",82.0% and 78.0% and 73.5%
same,% efficacy,"mancozeb 1.68 kg/ha, 14/14 d after first/last application, 26 d after planting, LEAUPP",83.8% and 72.3% and 85.9% and 76.0%
same,% efficacy,"mancozeb 1.68 kg/ha, 21/21 d after first/last application, 33 d after planting, LEALOW",42.0% and 38.0% and 52.0% and 48.0%
same,% efficacy,"mancozeb 1.68 kg/ha, 21/21 d after first/last application, 33 d after planting, LEAMID",66.0% and 62.0% and 59.0% and 60.0%
same,% efficacy,"mancozeb 1.68 kg/ha, 21/21 d after first/last application, 33 d after planting, LEAUPP",71.0% and 72.3% and 66.7% and 60.0%
same,% efficacy,"mancozeb 1.68 kg/ha, 28/7 d after first/last application, 40 d after planting, LEALOW",28.0% and 35.0% and 32.0% and 25.0%
same,% efficacy,"mancozeb 1.68 kg/ha, 28/7 d after first/last application, 40 d after planting, LEAMID",62.0% and 56.0% and 54.0% and 49.0%
same,% efficacy,"mancozeb 1.68 kg/ha, 28/7 d after first/last application, 40 d after planting, LEAUPP",82.1% and 74.2% and 73.7% and 68.9%
same,% efficacy,"mancozeb 1.68 kg/ha, 35/14 d after first/last application, 47 d after planting, LEAMID",48.0% and 36.0% and 32.0% and 43.0%
same,% efficacy,"mancozeb 1.68 kg/ha, 35/14 d after first/last application, 47 d after planting, LEAUPP",72.6% and 67.0% and 59.0% and 54.8%
same,% efficacy,"mancozeb 1.68 kg/ha, 42/21 d after first/last application, 54 d after planting, LEAUPP",54.0% and 43.0% and 52.0% and 38.0%
CO/C=C(/C(=O)OC)c1ccccc1Oc1cc(Oc2ccccc2C#N)ncn1 [Azoxystrobin],% efficacy,"azoxystrobin 37.5 g/ha, 7/7 d after first/last application, 19 d after planting, LEALOW",64.3% and 72.8% and 67.8% and 77.8%
same,% efficacy,"azoxystrobin 37.5 g/ha, 7/7 d after first/last application, 19 d after planting, LEAMID",73.4% and 88.9% and 81.9% and 100.0%
same,% efficacy,"azoxystrobin 37.5 g/ha, 7/7 d after first/last application, 19 d after planting, LEAUPP",100.0%
same,% efficacy,"azoxystrobin 37.5 g/ha, 14/14 d after first/last application, 26 d after planting, LEALOW",85.0% and 79.0% and 84.1% and 80.6%
same,% efficacy,"azoxystrobin 37.5 g/ha, 14/14 d after first/last application, 26 d after planting, LEAMID",92.0% and 94.5% and 90.0% and 89.4%
same,% efficacy,"azoxystrobin 37.5 g/ha, 14/14 d after first/last application, 26 d after planting, LEAUPP",98.6% and 90.8% and 98.7%
same,% efficacy,"azoxystrobin 37.5 g/ha, 21/21 d after first/last application, 33 d after planting, LEALOW",72.0% and 65.0% and 59.0% and 60.0%
same,% efficacy,"azoxystrobin 37.5 g/ha, 21/21 d after first/last application, 33 d after planting, LEAMID",82.0% and 79.0% and 90.0% and 78.0%
same,% efficacy,"azoxystrobin 37.5 g/ha, 21/21 d after first/last application, 33 d after planting, LEAUPP",100.0%
same,% efficacy,"azoxystrobin 37.5 g/ha, 28/7 d after first/last application, 40 d after planting, LEALOW",54.0% and 67.0% and 65.0% and 62.0%
same,% efficacy,"azoxystrobin 37.5 g/ha, 28/7 d after first/last application, 40 d after planting, LEAMID",82.0% and 85.0% and 88.0%
same,% efficacy,"azoxystrobin 37.5 g/ha, 28/7 d after first/last application, 40 d after planting, LEAUPP",100.0%
same,% efficacy,"azoxystrobin 37.5 g/ha, 35/14 d after first/last application, 47 d after planting, LEAMID",85.0% and 88.0% and 82.0%
same,% efficacy,"azoxystrobin 37.5 g/ha, 35/14 d after first/last application, 47 d after planting, LEAUPP",100.0% and 98.9%
same,% efficacy,"azoxystrobin 37.5 g/ha, 42/21 d after first/last application, 54 d after planting, LEAMID",52.0% and 62.0% and 56.0% and 58.0%
same,% efficacy,"azoxystrobin 37.5 g/ha, 42/21 d after first/last application, 54 d after planting, LEAUPP",82.0% and 85.0% and 86.0%
